Source: ChEMBL document CHEMBL1201862, “PubChem BioAssay data set” (2004)
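A five-concentration, 48-hour dose response in 96-well plates underlies each endpoint, interpolated linearly between surrounding concentrations. GI50 = concentration required for 50% inhibition of growth.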 Activity calls are given as the source filed them. No stated cut-off is given here; in the data, active = GI50 up to about 1.1 µM and inactive = higher.

Experiments:
Assay in all cases: DTP human tumour cell line panel, 48 h
SW-620 = test system: SW-620
SR = test system: SR
RXF 393 = test system: RXF 393
LOX IMVI = test system: LOX IMVI
SNB-75 = test system: SNB-75
NCI-H522 = test system: NCI-H522
CCRF-CEM = test system: CCRF-CEM
U-251 = test system: U-251
HOP-62 = test system: HOP-62
EKVX = test system: EKVX
NCI/ADR-RES = test system: NCI/ADR-RES
SNB-19 = test system: SNB-19
M14 = test system: M14
A549 = test system: A549
CAKI-1 = test system: CAKI-1
OVCAR-8 = test system: OVCAR-8
UO-31 = test system: UO-31
KM12 = test system: KM12
T47D = test system: T47D
SK-MEL-5 = test system: SK-MEL-5

Structure (SMILES)	GI50 (SW-620)	GI50 (SR)	GI50 (RXF 393)	GI50 (LOX IMVI)	GI50 (SNB-75)	GI50 (NCI-H522)	GI50 (CCRF-CEM)	GI50 (U-251)	GI50 (HOP-62)	GI50 (EKVX)	GI50 (NCI/ADR-RES)	GI50 (SNB-19)	GI50 (M14)	GI50 (A549)	GI50 (CAKI-1)	GI50 (OVCAR-8)	GI50 (UO-31)	GI50 (KM12)	GI50 (T47D)	GI50 (SK-MEL-5)
O=Cc1ccccc1B(O)O	25.7 µM (inactive)	< 0.01 µM (active)	15.7 µM (inactive)	20.7 µM (inactive)	43.8 µM (inactive)	22.9 µM (inactive)	6.34 µM (inactive)	30.7 µM (inactive)	> 100 µM (inactive)	< 0.01 µM (active)	52 µM (inactive)	> 100 µM (inactive)	> 100 µM (inactive)	12.7 µM (inactive)	47.5 µM (inactive)	67.8 µM (inactive)	54.1 µM (inactive)	> 100 µM (inactive)	0.0147 µM (active)	–
Cc1nn(C(=O)c2ccccc2O)c2c1C(c1ccc(O)cc1)SC(=N)N2 (stereo not given)	> 6.64 µM (inactive)	1.44 µM (inactive)	1.23 µM (inactive)	1.36 µM (inactive)	0.74 µM (active)	> 3.29 µM (inactive)	1.7 µM (inactive)	1.37 µM (inactive)	–	> 4 µM (inactive)	2.03 µM (inactive)	8.41 µM (inactive)	> 2.86 µM (inactive)	1.26 µM (inactive)	> 2.32 µM (inactive)	> 2.47 µM (inactive)	7.55 µM (inactive)	> 2.15 µM (inactive)	1.23 µM (inactive)	> 3.08 µM (inactive)
COC(=O)c1cc2c3c(c1)Oc1cc(C(=O)OC)cc4c1C3c1c(cc(C(=O)OC)cc1O4)O2	35 µM (inactive)	13.8 µM (inactive)	0.406 µM (active)	5.92 µM (inactive)	5.81 µM (inactive)	3.19 µM (inactive)	11.4 µM (inactive)	12.3 µM (inactive)	11.4 µM (inactive)	16.4 µM (inactive)	0.163 µM (active)	20 µM (inactive)	26.6 µM (inactive)	12.6 µM (inactive)	14 µM (inactive)	–	21 µM (inactive)	10.1 µM (inactive)	20 µM (inactive)	2.92 µM (inactive)
CC(C)(C)OC(=O)[C@@H]1CCC(=O)N1C1(c2ccccc2)c2ccccc2-c2ccccc21	30.5 µM (inactive)	38.5 µM (inactive)	9.77 µM (inactive)	17.9 µM (inactive)	25.9 µM (inactive)	26.9 µM (inactive)	23.8 µM (inactive)	25.7 µM (inactive)	58.5 µM (inactive)	82.8 µM (inactive)	> 100 µM (inactive)	> 100 µM (inactive)	50.4 µM (inactive)	35.2 µM (inactive)	88.5 µM (inactive)	88.1 µM (inactive)	67.3 µM (inactive)	43.3 µM (inactive)	44.9 µM (inactive)	23.9 µM (inactive)
N#CCCC1(CCC#N)S(=O)(=O)OCCOS1(=O)=O	24.1 µM (inactive)	29.6 µM (inactive)	37.1 µM (inactive)	18.3 µM (inactive)	32.1 µM (inactive)	27.1 µM (inactive)	28.7 µM (inactive)	24.7 µM (inactive)	< 0.01 µM (active)	> 100 µM (inactive)	19.2 µM (inactive)	48.8 µM (inactive)	56.8 µM (inactive)	48.1 µM (inactive)	40.6 µM (inactive)	89.1 µM (inactive)	50.5 µM (inactive)	32 µM (inactive)	43.8 µM (inactive)	47.9 µM (inactive)
N#Cc1c(N)oc(-c2cccc([N+](=O)[O-])c2)c1C#N	24.1 µM (inactive)	46.6 µM (inactive)	24.8 µM (inactive)	31.6 µM (inactive)	21.9 µM (inactive)	23.7 µM (inactive)	27 µM (inactive)	27.5 µM (inactive)	> 10 µM (inactive)	12.9 µM (inactive)	30.5 µM (inactive)	31.6 µM (inactive)	46.9 µM (inactive)	> 100 µM (inactive)	20.7 µM (inactive)	21.1 µM (inactive)	16.7 µM (inactive)	> 10 µM (inactive)	50 µM (inactive)	19.6 µM (inactive)
COc1ccc(C(CC2(c3ccc(OC)cc3)SCCCS2)NC(C)=O)cc1 (stereo not given)	47.8 µM (inactive)	71.3 µM (inactive)	67.9 µM (inactive)	85.5 µM (inactive)	32.4 µM (inactive)	29.2 µM (inactive)	21.9 µM (inactive)	38.8 µM (inactive)	47.1 µM (inactive)	52.8 µM (inactive)	21.2 µM (inactive)	99.1 µM (inactive)	94 µM (inactive)	55.8 µM (inactive)	72.3 µM (inactive)	42.3 µM (inactive)	96.4 µM (inactive)	45.4 µM (inactive)	24.2 µM (inactive)	18.4 µM (inactive)
COc1cc(OC)c(C2(c3c(OC(C)C)c(=O)c3=O)SCCCS2)cc1OC	> 100 µM (inactive)	> 100 µM (inactive)	> 100 µM (inactive)	> 100 µM (inactive)	> 100 µM (inactive)	> 100 µM (inactive)	> 100 µM (inactive)	> 100 µM (inactive)	> 100 µM (inactive)	> 100 µM (inactive)	> 100 µM (inactive)	> 100 µM (inactive)	> 100 µM (inactive)	> 100 µM (inactive)	> 100 µM (inactive)	> 100 µM (inactive)	> 100 µM (inactive)	> 100 µM (inactive)	> 100 µM (inactive)	> 100 µM (inactive)
Cc1nc(-n2nc(-c3ccccc3)cc2-c2ccccc2)sc1C(=O)/C=C/c1ccc([N+](=O)[O-])cc1	21.4 µM (inactive)	2.86 µM (inactive)	16.7 µM (inactive)	15.7 µM (inactive)	2.69 µM (inactive)	16.5 µM (inactive)	14 µM (inactive)	16 µM (inactive)	20.1 µM (inactive)	> 43 µM (inactive)	17.2 µM (inactive)	24.2 µM (inactive)	27.6 µM (inactive)	> 59.7 µM (inactive)	24.9 µM (inactive)	17.7 µM (inactive)	14 µM (inactive)	9.29 µM (inactive)	9.25 µM (inactive)	16.6 µM (inactive)
Nc1nc2c(c(-c3ccccc3Cl)n1)COC/C2=C\c1ccccc1Cl	16.6 µM (inactive)	5.16 µM (inactive)	16 µM (inactive)	18.7 µM (inactive)	15.9 µM (inactive)	14.6 µM (inactive)	11.7 µM (inactive)	16.8 µM (inactive)	18.1 µM (inactive)	18.3 µM (inactive)	16.8 µM (inactive)	15.7 µM (inactive)	15.7 µM (inactive)	–	16.3 µM (inactive)	16 µM (inactive)	17.1 µM (inactive)	17.9 µM (inactive)	17.1 µM (inactive)	16.4 µM (inactive)
Cc1c(-c2ccccc2)c(C#N)c2nnn(-c3ccc([N+](=O)[O-])cc3)c(=O)n12	7.78 µM (inactive)	7.31 µM (inactive)	17.4 µM (inactive)	17.5 µM (inactive)	14.5 µM (inactive)	10.2 µM (inactive)	8.43 µM (inactive)	9.93 µM (inactive)	13.6 µM (inactive)	6.32 µM (inactive)	15.9 µM (inactive)	–	–	–	29.9 µM (inactive)	10.9 µM (inactive)	–	12.7 µM (inactive)	21.9 µM (inactive)	33 µM (inactive)
O=C1CSC(c2ccccc2O)N1c1ccc(-c2ccc(-n3c(-c4ccccc4)nc4ccccc4c3=O)cc2)cc1 (stereo not given)	22.8 µM (inactive)	54.3 µM (inactive)	35.1 µM (inactive)	25.7 µM (inactive)	24.9 µM (inactive)	19.2 µM (inactive)	26.4 µM (inactive)	33.7 µM (inactive)	39.6 µM (inactive)	37.4 µM (inactive)	30.1 µM (inactive)	50.6 µM (inactive)	38.5 µM (inactive)	21.3 µM (inactive)	26.1 µM (inactive)	24.3 µM (inactive)	20.7 µM (inactive)	13.9 µM (inactive)	23 µM (inactive)	–
O=P1(N(CCCl)CCCl)Oc2ccc(Cl)cc2Sc2c(ccc(Cl)c2Cl)O1 (stereo not given)	6.68 µM (inactive)	2.99 µM (inactive)	3.95 µM (inactive)	14.6 µM (inactive)	18.8 µM (inactive)	6.4 µM (inactive)	4.41 µM (inactive)	6.76 µM (inactive)	16 µM (inactive)	8.57 µM (inactive)	6.04 µM (inactive)	–	17.8 µM (inactive)	3.78 µM (inactive)	15.2 µM (inactive)	8.71 µM (inactive)	4.71 µM (inactive)	4.99 µM (inactive)	8.38 µM (inactive)	5.02 µM (inactive)
CCN(C(=O)N[C@H](C(=O)N[C@@H](C)C(=O)OC)C(C)C)c1ccccc1	39.2 µM (inactive)	31.2 µM (inactive)	39.5 µM (inactive)	> 100 µM (inactive)	32.1 µM (inactive)	19 µM (inactive)	56 µM (inactive)	28.9 µM (inactive)	> 100 µM (inactive)	> 100 µM (inactive)	> 100 µM (inactive)	64.3 µM (inactive)	31 µM (inactive)	> 100 µM (inactive)	> 100 µM (inactive)	24.5 µM (inactive)	43.3 µM (inactive)	39.6 µM (inactive)	29.8 µM (inactive)	36.8 µM (inactive)
